{"source": "patent US9926347B2", "about": "“Methods for engineering sugar transporter preferences” (Board of Regents, The University of Texas System, priority 2013, dated 2018)", "key": {"[1]": {"molecular_target": "T1, Candida intermedia GXS1 variant Phe38 Ile39 Met40 (F38I39M40; V38F/L39I/F40M; motif G-G-F-I-M-G, SEQ ID NO: 4; parent GXS1 SEQ ID NO: 1) (Sungouiella intermedia, UniProt Q2MEV7, F40M/L39I/V38F)", "T1 construct": "14C-xylose uptake", "T1 sequence (Q2MEV7 1-522 V38F/L39I/F40M)": "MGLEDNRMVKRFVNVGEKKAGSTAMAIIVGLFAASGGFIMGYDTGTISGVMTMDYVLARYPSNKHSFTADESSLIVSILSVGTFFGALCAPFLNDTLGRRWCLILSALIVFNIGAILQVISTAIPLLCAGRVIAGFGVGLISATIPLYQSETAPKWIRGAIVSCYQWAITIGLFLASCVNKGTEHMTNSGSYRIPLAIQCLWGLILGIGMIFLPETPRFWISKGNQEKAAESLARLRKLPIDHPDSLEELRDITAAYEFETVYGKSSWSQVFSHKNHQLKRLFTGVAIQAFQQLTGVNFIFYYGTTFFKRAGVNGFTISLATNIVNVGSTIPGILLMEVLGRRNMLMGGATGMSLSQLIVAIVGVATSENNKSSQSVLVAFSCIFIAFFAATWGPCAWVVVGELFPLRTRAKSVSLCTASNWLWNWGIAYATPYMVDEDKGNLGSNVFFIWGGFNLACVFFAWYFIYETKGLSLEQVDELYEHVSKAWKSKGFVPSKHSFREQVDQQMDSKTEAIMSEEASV", "experiment": "Radiolabeled xylose uptake kinetics, gxs1 Phe38 Ile39 Met40 triple mutant", "format": "cell-based", "method": "(§1) Radiolabelled xylose uptake experiments were performed to quantify the improvement of transport kinetics in the Phe^38 Ile^39 Met^40 triple mutant. […] An increased KM was observed as well (FIG. 5E), a phenotype observed in previous efforts to engineer this transporter (38). Nevertheless, the binding affinity is still quite high for practical culturing at a value corresponding to around 0.1 g/L (Table 2).\n(§2) Strains, media, and plasmids—Molecular cloning and standard culturing techniques with E. coli DH10B were performed according to Sambrook (46). S. cerevisiae EX.12 was used for all yeast experiments and was constructed as previously described (38). All transporters were cloned into p414-TEF, a standard yeast shuttle vector created by Mumberg (47). Yeast synthetic complete media was used for culture and experimental growth media. CSM-Trp was used when S. cerevisiae EX.12 was carrying a transporter. Carbon sources were provided at 20 g/L.\n(§3) Radiolabeled xylose uptake—Uptake of ^14C labeled xylose was used to determine the Michaelis-Menten parameters for C. intermedia GXS1 and the Phe^38 Ile^39 Met^40 triple mutant. The method was performed as previously described (38)."}, "[2]": {"molecular_target": "Candida intermedia GXS1 variant Phe38 Ile39 Met40 (F38I39M40; motif G-G-F-I-M-G, SEQ ID NO: 4; parent GXS1 SEQ ID NO: 1) (Sungouiella intermedia, UniProt Q2MEV7, F40M/L39I/V38F)", "format": "cell-based", "conditions": "glucose at levels of 5 g/L; S. cerevisiae EX.12", "description": "Growth rate measurements—All exponential growth rates were measured and calculated according to the method previously described using a Bioscreen C (Growth Curves USA, Piscataway, N.J.) and a MATLAB script. The Bioscreen C measures online optical density for easy and accurate measurement of the growth curves of up to 200 strains at one time. Error was calculated based on biological triplicate in all cases. In all cases, the Bioscreen C was set to maintain a temperature of 30° C., employ high continuous shaking, and to measure optical density every 10 minutes. A single carbon source per well was used in all experiments save one."}, "[3]": {"tested_on": "Candida intermedia GXS1 variant Phe38 Ile39 Met40 (F38I39M40; V38F/L39I/F40M; motif G-G-F-I-M-G, SEQ ID NO: 4; parent GXS1 SEQ ID NO: 1)", "experiment": "Radiolabeled xylose uptake kinetics, gxs1 Phe38 Ile39 Met40 triple mutant", "format": "cell-based", "conditions": "triple mutant versus wild type GXS1", "method": "as §1, §2, §3"}, "[4]": {"molecular_target": "T2, Candida intermedia GXS1 transporter protein, wild type, SEQ ID NO: 1 (Sungouiella intermedia, UniProt Q2MEV7)", "T2 construct": "14C-xylose uptake", "T2 sequence (Q2MEV7 1-522)": "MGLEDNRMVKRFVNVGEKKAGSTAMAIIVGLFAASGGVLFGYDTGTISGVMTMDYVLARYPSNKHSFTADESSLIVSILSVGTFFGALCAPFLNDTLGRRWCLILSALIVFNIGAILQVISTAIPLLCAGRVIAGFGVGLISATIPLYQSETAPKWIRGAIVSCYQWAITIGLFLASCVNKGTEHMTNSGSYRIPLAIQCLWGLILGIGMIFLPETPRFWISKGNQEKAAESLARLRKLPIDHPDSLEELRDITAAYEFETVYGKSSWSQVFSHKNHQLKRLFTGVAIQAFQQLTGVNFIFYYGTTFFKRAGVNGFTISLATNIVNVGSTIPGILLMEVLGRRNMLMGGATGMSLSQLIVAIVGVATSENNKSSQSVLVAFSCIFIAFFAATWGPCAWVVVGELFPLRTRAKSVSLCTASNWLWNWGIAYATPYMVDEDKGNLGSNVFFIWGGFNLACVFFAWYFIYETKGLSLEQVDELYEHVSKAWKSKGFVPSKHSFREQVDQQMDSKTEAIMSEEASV", "experiment": "Radiolabeled xylose uptake kinetics, wild type GXS1", "format": "cell-based", "conditions": "gene in p414-TEF, S. cerevisiae EX.12", "method": "as §1, §2, §3"}, "[5]": {"substrate": "OC1OC[C@@H](O)[C@H](O)[C@H]1O", "experiment": "Radiolabeled xylose uptake kinetics, gxs1 Phe38 Ile39 Met40 triple mutant", "format": "cell-based", "method": "as §1, §2, §3"}, "[6]": {"substrate": "OC1OC[C@@H](O)[C@H](O)[C@H]1O", "experiment": "Radiolabeled xylose uptake kinetics, wild type GXS1", "format": "cell-based, Candida intermedia", "conditions": "other: radiolabeled xylose uptake; gene in p414-TEF; S. cerevisiae EX.12", "method": "as §1, §2, §3"}}, "note": "“Also recorded” adds a separate entry of the source.", "data": [{"molecule": "OC[C@H]1OC(O)[C@H](O)[C@@H](O)[C@@H]1O", "note": "(stereo partly shown) [glucose]", "values": [{"measurement": "radiolabelled xylose uptake in the presence of glucose (inhibition by glucose)", "setting": "[1]; glucose concentration not stated", "value": "no radiolabelled xylose uptake was detected"}, {"measurement": "inhibition of xylose growth by glucose", "setting": "[2]", "value": "still appear to inhibit xylose growth"}]}, {"molecule": "OC1OC[C@@H](O)[C@H](O)[C@H]1O", "note": "(stereo partly shown) [xylose]", "values": [{"measurement": "KM change compared to wild type (xylose)", "setting": "[3]", "value": "increased KM; also recorded: significantly increased"}, {"measurement": "Vmax change compared to wild type (xylose)", "setting": "[3]", "value": "doubling in Vmax"}, {"measurement": "VMAX (xylose)", "setting": "[1]; radiolabeled xylose uptake, gene in p414-TEF, S. cerevisiae EX.12", "value": "15.01 ± 2.38", "unit": "nmol min^−1 gDCW^−1"}, {"measurement": "Km", "setting": "[1]; read-out: binding affinity / KM (xylose), as g/L, conversion of KM", "value": "~666", "unit": "µM"}, {"measurement": "VMAX (xylose)", "setting": "[4]", "value": "7.23 ± 0.6", "unit": "nmol min^−1 gDCW^−1"}]}, {"molecule": "Candida intermedia GXS1 variant Phe38 Ile39 Met40 (F38I39M40; V38F/L39I/F40M; motif G-G-F-I-M-G, SEQ ID NO: 4; parent GXS1 SEQ ID NO: 1) (Sungouiella … (protein, 14C-xylose uptake) MGLEDNRMVKRFVNVGEKKAGSTAMAIIVGLFAASGGFIMGYDTGTISGVMTMDYVLARYPSNKHSFTADESSLIVSILSVGTFFGALCAPFLNDTLGRRWCLILSALIVFNIGAILQVISTAIPLLCAGRVIAGFGVGLISATIPLYQSETAPKWIRGAIVSCYQWAITIGLFLASCVNKGTEHMTNSGSYRIPLAIQCLWGLILGIGMIFLPETPRFWISKGNQEKAAESLARLRKLPIDHPDSLEELRDITAAYEFETVYGKSSWSQVFSHKNHQLKRLFTGVAIQAFQQLTGVNFIFYYGTTFFKRAGVNGFTISLATNIVNVGSTIPGILLMEVLGRRNMLMGGATGMSLSQLIVAIVGVATSENNKSSQSVLVAFSCIFIAFFAATWGPCAWVVVGELFPLRTRAKSVSLCTASNWLWNWGIAYATPYMVDEDKGNLGSNVFFIWGGFNLACVFFAWYFIYETKGLSLEQVDELYEHVSKAWKSKGFVPSKHSFREQVDQQMDSKTEAIMSEEASV", "values": [{"measurement": "Km", "setting": "[5]; other: conversion of KM", "value": 0.1, "unit": "g/L"}, {"measurement": "Km", "setting": "[5]; other: radiolabeled xylose uptake, gene in p414-TEF, S. cerevisiae EX.12", "value": "721 ± 116", "unit": "µM"}]}, {"molecule": "Candida intermedia GXS1 transporter protein, wild type, SEQ ID NO: 1 (Sungouiella intermedia) (protein, 14C-xylose uptake) MGLEDNRMVKRFVNVGEKKAGSTAMAIIVGLFAASGGVLFGYDTGTISGVMTMDYVLARYPSNKHSFTADESSLIVSILSVGTFFGALCAPFLNDTLGRRWCLILSALIVFNIGAILQVISTAIPLLCAGRVIAGFGVGLISATIPLYQSETAPKWIRGAIVSCYQWAITIGLFLASCVNKGTEHMTNSGSYRIPLAIQCLWGLILGIGMIFLPETPRFWISKGNQEKAAESLARLRKLPIDHPDSLEELRDITAAYEFETVYGKSSWSQVFSHKNHQLKRLFTGVAIQAFQQLTGVNFIFYYGTTFFKRAGVNGFTISLATNIVNVGSTIPGILLMEVLGRRNMLMGGATGMSLSQLIVAIVGVATSENNKSSQSVLVAFSCIFIAFFAATWGPCAWVVVGELFPLRTRAKSVSLCTASNWLWNWGIAYATPYMVDEDKGNLGSNVFFIWGGFNLACVFFAWYFIYETKGLSLEQVDELYEHVSKAWKSKGFVPSKHSFREQVDQQMDSKTEAIMSEEASV", "values": [{"measurement": "Km", "setting": "[6]", "value": "25.6 ± 65.9", "unit": "µM"}]}]}
